Reference: patent US9302999B2, “Substituted triazoles as herbicides” (E. I. DU PONT DE NEMOURS AND COMPANY, priority 2012, dated 2016)

Experiments:
Format in all cases: in vivo
Details in all cases: Preemergence, scale 0 to 100
[1] = tested on: foxtail, green (green foxtail, Setaria viridis); assay: Test E pre-/postemergence: foxtail, green
Method in brief: (§1)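 Visual injury scored 0–100 (0 no effect, 100 complete control) against controls after 14 to 21 days in greenhouse. Compounds formulated in surfactant-containing non-phytotoxic solvent, applied pre-emergence to seeded silt loam or post-emergence to 1- to 4-leaf plants in peat-based medium.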

soybean (Glycine max) = assay: Test E pre-/postemergence: soybean
Method in brief: as §1

[2] = tested on: nightshade (eastern black nightshade, Solanum ptycanthum); assay: Test E pre-/postemergence: nightshade
Excerpt: (§2) Seeds of plant species selected from corn (Zea mays), soybean (Glycine max), velvetleaf (Abutilon theophrasti), lambsquarters (Chenopodium album), poinsettia, wild (wild poinsettia, Euphorbia heterophylla), pigweed, palmer (palmer pigweed, Amaranthus palmeri), waterhemp (common waterhemp, Amaranthus rudis), smartweed (ladysthumb smartweed, Polygonum persicaria), surinam grass (Brachiaria decumbens), crabgrass, large (large crabgrass, Digitaria sanguinalis), crabgrass, Brazil (Brazilian crabgrass, Digitaria horizontalis), panicum, fall (fall panicum, Panicum dichotomiflorum), foxtail, giant (giant foxtail, Setaria faberii), foxtail, green (green foxtail, Setaria viridis), goosegrass (Eleusine indica), johnsongrass (Sorghum halepense), ragweed (common ragweed, Ambrosia elation), barnyardgrass (Echinochloa crus-galli), sandbur (southern sandbur, Cenchrus echinatus), arrowleaf sida (Sida rhombifolia), ryegrass, Italian (Italian ryegrass, Lolium multiflorum), dayflower, (VA) (Virginia dayflower, Commelina virginica), field bindweed (Convolvulus arvensis), cocklebur (common cocklebur, Xanthium strumarium), morningglory (Ipomoea coccinea), nightshade (eastern black nightshade, Solanum ptycanthum), kochia (Kochia scoparia), nutsedge, yellow (yellow nutsedge, Cyperus esculentus) and beggarticks (hairy beggarticks, Bidens pilosa) were planted into a silt loam soil and treated preemergence with test chemicals formulated in a non-phytotoxic solvent mixture which included a surfactant. At the same time, plants selected from these crop and weed species were planted in pots containing a growing medium comprising spaghnum peat moss, vermiculite, wetting agent and starter nutrients and treated with postemergence applications of some of the test chemicals formulated in the same manner. Plants ranged in height from 2 to 18 cm for postemergence treatments (1- to 4-leaf stage).
(§3) Treated plants and controls were maintained in a greenhouse for 14 to 21 days, after which time all species were compared to controls and visually evaluated. Plant response ratings, summarized in Table E, are based on a scale of 0 to 100 where 0 is no effect and 100 is complete control. A dash (-) response means no test result.

[3] = tested on: panicum, fall (fall panicum, Panicum dichotomiflorum); assay: Test E pre-/postemergence: panicum, fall
Excerpt: as §2, §3

[4] = tested on: poinsettia, wild (wild poinsettia, Euphorbia heterophylla); assay: Test E pre-/postemergence: poinsettia, wild
Method in brief: as §1

[5] = tested on: crabgrass, large (large crabgrass, Digitaria sanguinalis); assay: Test E pre-/postemergence: crabgrass, large
Excerpt: as §2, §3

[6] = tested on: field bindweed (Convolvulus arvensis); assay: Test E pre-/postemergence: field bindweed
Method in brief: as §1

[7] = tested on: pigweed, palmer (palmer pigweed, Amaranthus palmeri); assay: Test E pre-/postemergence: pigweed, palmer
Excerpt: as §2, §3

[8] = tested on: crabgrass, Brazil (Brazilian crabgrass, Digitaria horizontalis); assay: Test E pre-/postemergence: crabgrass, Brazil
Excerpt: as §2, §3

[9] = tested on: dayflower, (VA) (Virginia dayflower, Commelina virginica); assay: Test E pre-/postemergence: dayflower, (VA)
Excerpt: as §2, §3

[10] = tested on: goosegrass (Eleusine indica); assay: Test E pre-/postemergence: goosegrass
Excerpt: as §2, §3

[11] = tested on: ryegrass, Italian (Italian ryegrass, Lolium multiflorum); assay: Test E pre-/postemergence: ryegrass, Italian
Method in brief: as §1

[12] = tested on: waterhemp (common waterhemp, Amaranthus rudis); assay: Test E pre-/postemergence: waterhemp
Method in brief: as §1

**Q.** How did the “Plant response rating: Foxtail, Green” value ([1]; 16 g ai/ha) turn out when Cc1nn(-c2ccc(C(F)(F)F)cn2)nc1Oc1ccnc(C(F)(F)F)c1 [Compound 23] was run?
**A.** 0

**Q.** What about the “Plant response rating: Foxtail, Green” value ([1]; 31 g ai/ha) of the same compound?
**A.** 0

**Q.** What about the “Plant response rating: Foxtail, Green” value ([1]; 62 g ai/ha) of the same compound?
**A.** 5

**Q.** And the “Plant response rating: Foxtail, Green” value ([1]; 125 g ai/ha)?
**A.** 70

**Q.** And the “Plant response rating: Foxtail, Green” value ([1]; 250 g ai/ha)?
**A.** 95

**Q.** And the “Plant response rating: Soybean” value (soybean (Glycine max); 16 g ai/ha)?
**A.** 0

**Q.** And the “Plant response rating: Soybean” value (soybean (Glycine max); 31 g ai/ha)?
**A.** 0

**Q.** And the “Plant response rating: Soybean” value (soybean (Glycine max); 62 g ai/ha)?
**A.** 0

**Q.** What about the “Plant response rating: Soybean” value (soybean (Glycine max); 125 g ai/ha) of the same compound?
**A.** 0

**Q.** And the “Plant response rating: Soybean” value (soybean (Glycine max); 250 g ai/ha)?
**A.** 20

**Q.** What about the “Plant response rating: Nightshade” value ([2]; 16 g ai/ha) of the same compound?
**A.** 0

**Q.** What about the “Plant response rating: Nightshade” value ([2]; 31 g ai/ha) of the same compound?
**A.** 0

**Q.** And the “Plant response rating: Nightshade” value ([2]; 62 g ai/ha)?
**A.** 0

**Q.** What about the “Plant response rating: Nightshade” value ([2]; 125 g ai/ha) of the same compound?
**A.** 95

**Q.** What about the “Plant response rating: Nightshade” value ([2]; 250 g ai/ha) of the same compound?
**A.** 98

**Q.** What about the “Plant response rating: Panicum, Fall” value ([3]; 16 g ai/ha) of the same compound?
**A.** 0

**Q.** What about the “Plant response rating: Panicum, Fall” value ([3]; 31 g ai/ha) of the same compound?
**A.** 15

**Q.** What about the “Plant response rating: Panicum, Fall” value ([3]; 62 g ai/ha) of the same compound?
**A.** 80

**Q.** What about the “Plant response rating: Panicum, Fall” value ([3]; 125 g ai/ha) of the same compound?
**A.** 100

**Q.** What about the “Plant response rating: Panicum, Fall” value ([3]; 250 g ai/ha) of the same compound?
**A.** 100

**Q.** And the “Plant response rating: Poinsettia, Wild” value ([4]; 16 g ai/ha)?
**A.** 0

**Q.** What about the “Plant response rating: Poinsettia, Wild” value ([4]; 31 g ai/ha) of the same compound?
**A.** 0

**Q.** What about the “Plant response rating: Poinsettia, Wild” value ([4]; 62 g ai/ha) of the same compound?
**A.** 0

**Q.** What about the “Plant response rating: Poinsettia, Wild” value ([4]; 125 g ai/ha) of the same compound?
**A.** 35

**Q.** What about the “Plant response rating: Poinsettia, Wild” value ([4]; 250 g ai/ha) of the same compound?
**A.** 35

**Q.** And the “Plant response rating: Crabgrass, Large” value ([5]; 16 g ai/ha)?
**A.** 5

**Q.** What about the “Plant response rating: Crabgrass, Large” value ([5]; 31 g ai/ha) of the same compound?
**A.** 5

**Q.** What about the “Plant response rating: Crabgrass, Large” value ([5]; 62 g ai/ha) of the same compound?
**A.** 35

**Q.** And the “Plant response rating: Crabgrass, Large” value ([5]; 125 g ai/ha)?
**A.** 70

**Q.** What about the “Plant response rating: Crabgrass, Large” value ([5]; 250 g ai/ha) of the same compound?
**A.** 100

**Q.** What about the “Plant response rating: Field Bindweed” value ([6]; 16 g ai/ha) of the same compound?
**A.** 0

**Q.** What about the “Plant response rating: Field Bindweed” value ([6]; 31 g ai/ha) of the same compound?
**A.** 0

**Q.** And the “Plant response rating: Field Bindweed” value ([6]; 62 g ai/ha)?
**A.** 0

**Q.** What about the “Plant response rating: Field Bindweed” value ([6]; 125 g ai/ha) of the same compound?
**A.** 0

**Q.** And the “Plant response rating: Field Bindweed” value ([6]; 250 g ai/ha)?
**A.** 70

**Q.** And the “Plant response rating: Pigweed, Palmer” value ([7]; 16 g ai/ha)?
**A.** 90

**Q.** What about the “Plant response rating: Pigweed, Palmer” value ([7]; 31 g ai/ha) of the same compound?
**A.** 90

**Q.** And the “Plant response rating: Pigweed, Palmer” value ([7]; 62 g ai/ha)?
**A.** 100

**Q.** And the “Plant response rating: Pigweed, Palmer” value ([7]; 125 g ai/ha)?
**A.** 100

**Q.** And the “Plant response rating: Pigweed, Palmer” value ([7]; 250 g ai/ha)?
**A.** 100

**Q.** And the “Plant response rating: Crabgrass, Brazil” value ([8]; 16 g ai/ha)?
**A.** 0

**Q.** What about the “Plant response rating: Crabgrass, Brazil” value ([8]; 31 g ai/ha) of the same compound?
**A.** 0

**Q.** What about the “Plant response rating: Crabgrass, Brazil” value ([8]; 62 g ai/ha) of the same compound?
**A.** 65

**Q.** What about the “Plant response rating: Crabgrass, Brazil” value ([8]; 125 g ai/ha) of the same compound?
**A.** 65

**Q.** And the “Plant response rating: Crabgrass, Brazil” value ([8]; 250 g ai/ha)?
**A.** 85

**Q.** What about the “Plant response rating: Dayflower, VA” value ([9]; 16 g ai/ha) of the same compound?
**A.** 0

**Q.** And the “Plant response rating: Dayflower, VA” value ([9]; 31 g ai/ha)?
**A.** 0

**Q.** And the “Plant response rating: Dayflower, VA” value ([9]; 62 g ai/ha)?
**A.** 0

**Q.** And the “Plant response rating: Dayflower, VA” value ([9]; 125 g ai/ha)?
**A.** 5

**Q.** And the “Plant response rating: Dayflower, VA” value ([9]; 250 g ai/ha)?
**A.** 5

**Q.** What about the “Plant response rating: Goosegrass” value ([10]; 16 g ai/ha) of the same compound?
**A.** 0

**Q.** And the “Plant response rating: Goosegrass” value ([10]; 62 g ai/ha)?
**A.** 20

**Q.** What about the “Plant response rating: Goosegrass” value ([10]; 125 g ai/ha) of the same compound?
**A.** 35

**Q.** And the “Plant response rating: Goosegrass” value ([10]; 250 g ai/ha)?
**A.** 60

**Q.** What about the “Plant response rating: Ryegrass, Italian” value ([11]; 16 g ai/ha) of the same compound?
**A.** 0

**Q.** And the “Plant response rating: Ryegrass, Italian” value ([11]; 31 g ai/ha)?
**A.** 0

**Q.** And the “Plant response rating: Ryegrass, Italian” value ([11]; 62 g ai/ha)?
**A.** 0

**Q.** What about the “Plant response rating: Ryegrass, Italian” value ([11]; 125 g ai/ha) of the same compound?
**A.** 0

**Q.** And the “Plant response rating: Ryegrass, Italian” value ([11]; 250 g ai/ha)?
**A.** 10

**Q.** What about the “Plant response rating: Waterhemp” value ([12]; 16 g ai/ha) of the same compound?
**A.** 0

**Q.** And the “Plant response rating: Waterhemp” value ([12]; 31 g ai/ha)?
**A.** 80

**Q.** What about the “Plant response rating: Waterhemp” value ([12]; 62 g ai/ha) of the same compound?
**A.** 80

**Q.** What about the “Plant response rating: Waterhemp” value ([12]; 125 g ai/ha) of the same compound?
**A.** 98

**Q.** And the “Plant response rating: Waterhemp” value ([12]; 250 g ai/ha)?
**A.** 100
